Numbers after ± are expanded uncertainties.
What was measured:
[1] = Crystal; Adiabatic calorimetry
[2] = Molar enthalpy of transition or fusion; conditions: Crystal; Adiabatic calorimetry

With `[Bi]` [bismuth] the Triple point temperature [1] was 544.56 ± 0.005 K and the “Molar enthalpy of transition or fusion” value [2] was 11.11 ± 0.017 kJ/mol.
